Test results published in paper PMC10222454, “Characterization of the Molecular Diversity and Degranulation Activity of Mastoparan Family Peptides from Wasp Venoms” (Toxins, 2023).
Where two headings read alike, the source gives them in different places. Ends that are not written are not given here.

Key:
[1] = system: P815 cells; test: Mast cell degranulation activity (β-hexosaminidase release) in P815 cells; assay type: cell-based, mouse; conditions: P815 cells, 80 μg/mL peptide, 15 min at 37 °C, % of total β-hexosaminidase (0.1% Triton X-100 lysis)
Protocol: (§1) RBL-2H3 cells (rat mucosal-type mast cell line) and P815 cells (mouse mast cell tumor cell line) were obtained from the BeNa Culture Collection (Xinyang, China). RBL-2H3 cells were cultured in DMEM (Gibco, Wuhan, China) supplemented with 15% FBS (Gibco), and P815 cells were maintained in RPMI 1640 basic medium supplemented with 10% FBS and antibiotics (100 mg/L streptomycin and 1 × 10^5 U/L penicillin) in a humidified atmosphere (5% CO2, 37 °C).
(§2) Degranulation was analyzed by measuring the release of the granule marker N-acetyl-D-glucosaminidase (β-hexosaminidase), which colocalizes with histamine, as described in [24]. For this, 2 × 10^5 P815 cells/mL or 1.5 × 10^5 RBL-2H3 cells/mL were seeded in 96-well cell culture plates. Twelve hours later, the cells were incubated with various concentrations of mastoparans dissolved in 100 μL HEPES buffer (137 mM NaCl, 2.7 mM KCl, 1 mM MgCl2, 1.8 mM CaCl2, 20 mM HEPES, 1 mg/mL BSA, and 1 mg/mL glucose, pH 7.4) for 15 min at 37 °C and 5% CO2. Then, the reactions were quenched by the addition of 0.15 mL of ice-cold HEPES buffer. After centrifugation, the supernatants were sampled for the β-hexosaminidase assay. Briefly, 50 μL samples of the cell culture supernatants and 50 μL of the substrate, 5 mM p-nitrophenyl-N-acetyl-b-D-glucosaminide (Sigma) in 0.2 M citrate, pH 4.5, were incubated in 96-well plates at 37 °C and 5% CO2 for 16–18 h to yield the chromophore p-nitrophenol, and the reactions were stopped by the addition of 100 μL of 0.2 M glycine solution, pH 10.7. The absorbance of the colored product was assessed at 405 nm using a microtiter plate reader. The values for β-hexosaminidase released in the medium are expressed as the percentage of total β-hexosaminidase, which was measured in the cells after lysis in 0.1% Triton X-100. The experiment was repeated three times, and the results represent the mean and standard deviation (SD) of quadruplicate tests. The percent degranulation was calculated according to the following equation:Degranulation Rate (%) = 100% × (Amastoparans − AHEPES)/(ATriton X-100 − AHEPES).

[2] = system: RBL-2H3 cells; assay type: cell-based, rat; conditions: for degranulation of RBL-2H3 / mast cells, in words / Degranulation at 80 μg/mL, RBL-2H3: RBL-2H3 cells; for Degranulation at 80 μg/mL, RBL-2H3: 80 μg/mL peptide, 15 min at 37 °C, % of total β-hexosaminidase (0.1% Triton X-100 lysis); for degranulation activity of mutant compared with Protopolybia-MPIII, in words: mutants of Protopolybia-MPIII, Table 3
Protocol: as §1, §2
Statistical analysis was performed with GraphPad Prism software. The curve of mast cell degranulation induced by wasp mastoparans was generated in SigmaPlot 12.5 software, and the EC50 was calculated according to the following equation (Four-Parameter Logistic Curve): y = min + (max − min)/(1 + (x/EC50) […] Hillslope).

## INMKASAAVAKKLL-NH2 [Mastoparan-VB1]
[1]
  Degranulation at 80 μg/mL, P815: <20%
[2]
  degranulation of RBL-2H3 / mast cells, in words: neither of them could induce the degranulation
  Degranulation at 80 μg/mL, RBL-2H3: −1%
[2]; pH 7.4
  EC50: > 200 µM
  EC50 (μg/mL), RBL-2H3: >300 µg/mL

## INMKAVAAVAKKPL-NH2 [Mastoparan-VB2]
[1]
  Degranulation at 80 μg/mL, P815: <20%
[2]
  degranulation of RBL-2H3 / mast cells, in words: neither of them could induce the degranulation
  Degranulation at 80 μg/mL, RBL-2H3: 0%
[2]; pH 7.4
  EC50: > 200 µM
  EC50 (μg/mL), RBL-2H3: >300 µg/mL

## FDLLGLVKSVVSAL-NH2 [EpVP2b]
[2]; pH 7.4
  EC50: 25.9 ± 2.88 µM

## INWKAIIEAAKQAL-NH2 [Protopolybia-MPII]
[2]; pH 7.4
  EC50: 77.9 ± 9.08 µM

## LNLKGIFKKVASLLT-OH [Eumenitin]
[1]
  Degranulation at 80 μg/mL, P815: <20%
[2]
  degranulation of RBL-2H3 / mast cells, in words: hardly induced mast cell degranulation
  Degranulation at 80 μg/mL, RBL-2H3: 8%
[2]; pH 7.4
  EC50 (μg/mL), RBL-2H3: >300 µg/mL

## INWKKIAEVGGKILSSL-NH2 [Dominulin A]
[1]
  Degranulation at 80 μg/mL, P815: <20%
[2]
  Degranulation at 80 μg/mL, RBL-2H3: 11%
[2]; pH 7.4
  EC50: > 200 µM
  EC50 (μg/mL), RBL-2H3: >300 µg/mL

## INLKALAALVKKVL-NH2 [Mastoparan-II]
[2]; pH 7.4
  EC50: 58.7 ± 24.8 µM

## LNLKGLFKKVASLLT-OH [Eumenitin-F]
[1]
  Degranulation at 80 μg/mL, P815: <20%
[2]
  degranulation of RBL-2H3 / mast cells, in words: hardly induced mast cell degranulation
  Degranulation at 80 μg/mL, RBL-2H3: 2%
[2]; pH 7.4
  EC50 (μg/mL), RBL-2H3: >300 µg/mL

## INWLKLGKKVSAAL-NH2 [Protopolybia-MP III-14]
[2]
  EC50: > 325 µM
  EC50 (μg/mL), Protopolybia-MPIII and mutations: >500 µg/mL
  degranulation activity of mutant compared with Protopolybia-MPIII, in words: almost lost

## INWLKLGKKILGAI-NH2 [Pm-R1]
[2]; pH 7.4
  EC50: 22.9 ± 4.77 µM

## INLFGFAALVKKFL-NH2 [Mastoparan-T4]
[2]; pH 7.4
  EC50: 18.2 ± 3.52 µM

## INWLKLGKQILGAL-NH2 [Pm-R3]
[2]; pH 7.4
  EC50: 7.6 ± 0.76 µM

## LNFKALAALAKKIL-NH2 [Pm-R2]
[2]; pH 7.4
  EC50: 94.8 ± 73.5 µM

## INLKAIAAFAKKLL-NH2 [Mastoparan-T]
[2]; pH 7.4
  EC50: 138 ± 68.4 µM

## INWLKLGKKVIDIL-NH2 [Protopolybia-MP III-7]
[2]
  EC50: 25.2 ± 1.56 µM

## INWLKLGKKVSAIL-NH2 [Protopolybia-MPI]
[2]; pH 7.4
  EC50: 117 ± 38.3 µM

## LKLMGIVKKVLGAL-NH2 [MP-EM1]
[2]; pH 7.4
  EC50: 197 ± 164 µM

## INLKVFAALVKKFL-NH2 [Mastoparan-T1]
[2]; pH 7.4
  EC50: 32.1 ± 10 µM

## INWKGIAAMKKLL-NH2 [Mastoparan-like peptide 12b]
[1]
  Degranulation at 80 μg/mL, P815: <20%
[2]
  Degranulation at 80 μg/mL, RBL-2H3: 11%
[2]; pH 7.4
  EC50: > 200 µM
  EC50 (μg/mL), RBL-2H3: >300 µg/mL

## INWKKIASIGKEVLKAL-NH2 [PMM2]
[2]; pH 7.4
  EC50: 36.6 ± 4.61 µM

## LKLLGIVKKVLGAI-NH2 [EMP-EM2]
[2]; pH 7.4
  EC50: 72.8 ± 19.8 µM

## INWLKLGKKVIDAL-NH2 [Protopolybia-MP III-1]
[2]
  EC50: 98.4 ± 8.43 µM

## IKWKAILDAVKKVL-NH2 [Mastoparan-A]
[2]; pH 7.4
  EC50: 28.4 ± 1.55 µM

## INLKAIAALVKKVL-NH2 [HR1]
[2]; pH 7.4
  EC50: 48.8 ± 3.57 µM

## INWLKLGKAIIDAL-NH2 [Agelaia-MPI]
[2]; pH 7.4
  EC50: 5.25 ± 0.87 µM

## INLKALLAVAKKIL-NH2 [Mastoparan-C]
[2]; pH 7.4
  EC50: 32.6 ± 8.56 µM

## INLKVFAALVKKLL-NH2 [Mastoparan-T2]
[2]; pH 7.4
  EC50: 24.2 ± 7.89 µM

## INWLKLGKKILGAL-NH2 [PDD-B]
[2]; pH 7.4
  EC50: 21.7 ± 3.78 µM

## INWLKLGKAVSAIL-NH2 [Protopolybia-MP III-11]
[2]
  EC50: > 325 µM
  degranulation activity of mutant compared with Protopolybia-MPIII, in words: significantly decreased

## INWKKMAATALKMI-NH2 [Parapolybia-MP]
[2]; pH 7.4
  EC50: 89.4 ± 19.9 µM

## IDWLKLGKMVMDVL-NH2 [Polybia-MPIII]
[2]; pH 7.4
  EC50: 114 ± 59.3 µM

## INWKAILQRIKKML-NH2 [Agelaia-MPII]
[2]; pH 7.4
  EC50: 34.7 ± 9.03 µM

## FDLLGLVKKVASAL-NH2 [EpVP2a]
[2]; pH 7.4
  EC50: 31.6 ± 4.31 µM
